Patent publication US4118507A, “Benzodioxincarboxamide lipogenesis inhibitors” (Shell Oil Company, priority 1977, dated 1978)

Tests used:
[1] = system: lipogenesis in swine adipose tissue; test: percent inhibition of lipogenesis from radioactive glucose in pig (swine) adipose tissue slices; format: cell-based; details: 100 micrograms per milliliter, 37° C., 2 hours
Excerpt: (§1) The manner in which they cause this effect is not known with certainty; it is believed that they interfere with the synthesis of fatty acids in the tissues. Their effectiveness for this purpose has been ascertained by immersing samples of mammalian liver or adipose tissue in a liquid medium containing radioactive glucose and the test chemical for a period of time, then isolating the lipid from the treated tissue and determining the up-take of the radioactive carbon by means of scintillation counting techniques. These tests were conducted with both liver and adipose tissues, because in some animals the primary site of lipogenesis appears to be liver tissue, while in others it appears to be adipose tissue. The test animals were pigs, sheep, rabbits, cats and dogs.
Described in more detail, the tests were conducted according to the following general procedure:
Tissue slices (200 milligrams for liver; 150 milligrams for adipose tissue) were incubated, at 37° C. for 2 hours with shaking in 3 milliliters of Krebs-Ringer bicarbonate solution containing one-half the normal calcium ion concentration, 60 micromoles of glucose, 0.5 micro-Curie of glucose-U-^14 C, 300 microunits of insulin, and 5% dimethyl sulfoxide (DMSO). The test compounds were added as a solution or suspension in DMSO and were present at a concentration of 100 micrograms per milliliter of the incubation mixture.
The incubation was terminated by addition of 0.25 milliliter of 1 N sulfuric acid. The resulting mixture was extracted with a total of 25 milliliters of chloroform:methanol (2:1, v/v). The extracts were washed according to Folch et al. (J. Biol. Chem., 226, 497-509, (1957)), air dried, and counted in a liquid scintillation counter with 15 milliliters of counting fluid (two parts toluene containing 0.4% w/v New England Nuclear Omnifluor: 1 part Triton X-100). The tests were conducted in triplicate and were accompanied by control tests in which all ingredients,proportions and conditions were the same except that no test compound was included. From the data obtained, the percent inhibition of lipid synthesis by the test compound was calculated in each case.
Compound 1 was tested with respect to all of the indicated animal species. The other three compounds were tested only with respect to the pig.
From these and other tests, it has been established that in pigs there is little lipogenic activity in the liver tissue. From these and other tests, it also has been established that swine adipose tissue utilizes glucose for lipogenesis, and to be the major site of fatty acid synthesis. The data obtained from the tests using adipose tissue and glucose are set out in Table 1, as the percent inhibition of lipogenesis compared to the results obtained in the control tests wherein only the test compound was omitted.

[2] = system: glucose utilization in adipose tissue; test: inhibition of glucose utilization in cat adipose tissue slices; format: cell-based, cats; details: 100 micrograms per milliliter, 37° C., 2 hours
Excerpt: as §1
(§2) Described in more detail, the tests were conducted according to the following general procedure: […]
(§3) The incubation was terminated by addition of 0.25 milliliter of 1 N sulfuric acid. […] The extracts were washed according to Folch et al. (J. Biol. Chem., 226, 497-509, (1957)), air dried, and counted in a liquid scintillation counter with 15 milliliters of counting fluid (two parts toluene containing 0.4% w/v New England Nuclear Omnifluor: 1 part Triton X-100). […] From the data obtained, the percent inhibition of lipid synthesis by the test compound was calculated in each case. […]

[3] = system: glucose incorporation in the liver; test: inhibition of glucose incorporation into lipids in sheep liver tissue slices; format: cell-based; details: 100 micrograms per milliliter, 37° C., 2 hours
Excerpt: as §1, §2, §3

[4] = system: swine adipose tissue lipid synthesis; test: in vivo inhibition of swine adipose tissue lipid synthesis (oral dosing in feed, lipogenesis in biopsy slices); details: pigs, approximately 25 milligrams per kilogram per day in feed for seven days
Protocol: Compound 1 also was tested to determine the in vivo inhibition of swine adipose tissue lipid synthesis, as follows: pigs weighing about 20 kilograms were administered a fixed drug dose of approximately 25 milligrams of drug per kilogram of animal body weight per day for seven consecutive days. The drug was formulated to contain 10% w active ingredient and was prepared as coarse granules using 4% w plasdene as the granulating agent and lactose as the carrier. […] The daily drug or placebo dose was added to 1.2 kilograms of swine ration; about one-third of the total was fed at 0800, 1200, and 1600 hours. Biopsy samples were obtained from the dorsal subcutaneous adipose tissue (ca. 1 gram) in the neck region before drug administration, after 7 days of drug administration, and 6 days after withdrawal of drug. Adipose tissue slices were prepared from the biopsy sample, and in vitro lipogenesis was determined with radioactive glucose as substrate. The incubation was similar to that previously described except there was no DMSO or test compound in the flasks.

[5] = system: glucose incorporation into liver; test: inhibition of glucose incorporation into rabbit liver tissue slices; format: cell-based, rabbits; details: 100 micrograms per milliliter, 37° C., 2 hours
Excerpt: as §1, §2, §3

[6] = system: lipogenesis from glucose in the liver; test: inhibition of lipogenesis from glucose in cat liver tissue slices; format: cell-based, cats; details: 100 micrograms per milliliter, 37° C., 2 hours
Excerpt: as §1, §2, §3

[7] = system: glucose incorporation into adipose tissue; test: inhibition of glucose incorporation into rabbit adipose tissue slices; format: cell-based, rabbits; details: 100 micrograms per milliliter, 37° C., 2 hours
Excerpt: as §1, §2, §3

[8] = system: lipogenesis from glucose in adipose tissue; test: inhibition of lipogenesis from glucose in dog adipose tissue slices; format: cell-based, dogs; details: 100 micrograms per milliliter, 37° C., 2 hours
Excerpt: as §1, §2, §3

[9] = system: glucose incorporation in adipose tissue; test: inhibition of glucose incorporation into lipids in sheep adipose tissue slices; format: cell-based; details: 100 micrograms per milliliter, 37° C., 2 hours
Excerpt: as §1, §2, §3

Q: `C=CCNC(=O)[C@@H]1Oc2ccccc2O[C@@H]1C` (relative stereo) [Compound 4, 2,3-dihydro-3-methyl-N-(2-propenyl)-1,4-benzodioxin-2-carboxamide cis isomer] was tested. Which “Percent Inhibition of lipogenesis compared to control” value (from here on “Percent Inhibition of lipogenesis”) [1] did it give?
A: 68%

Q: With `C=CCNC(=O)C1COc2cc(C(C)(C)C)ccc2O1` (centres unmarked) [Compound 5, 6-(1,1-dimethylethyl)-2,3-dihydro-N-(2-propenyl)-1,4-benzodioxin-2-carboxamide] as the molecule, how does the “Percent Inhibition of lipogenesis” value [1] read?
A: 36%

Q: `C=CCNC(=O)C1(C)COc2ccccc2O1` (centres unmarked) [Compound 2, 2,3-dihydro-N-(2-propenyl)-2-methyl-1,4-benzodioxin-2-carboxamide] was tested. Which “Percent Inhibition of lipogenesis” value [1] did it give?
A: 41%

Q: `C=CCNC(=O)C1COc2cc(C)ccc2O1` (centres unmarked) [Compound 6, 2,3-dihydro-6-methyl-N-(2-propenyl)-1,4-benzodioxin-2-carboxamide] was tested. Which “Percent Inhibition of lipogenesis” value [1] did it give?
A: 80%

Q: How did the “inhibition of glucose utilization in adipose tissue” value [2] turn out when `C=CCNC(=O)C1COc2ccccc2O1` (centres unmarked) [Compound 1, 2,3-dihydro-N-(2-propenyl)-1,4-benzodioxin-2-carboxamide] was run?
A: did not inhibit glucose utilization in adipose tissue

Q: What about the “inhibition of glucose incorporation in the liver” value [3] of the same molecule?
A: 27%

Q: And the “effect on lipogenic rate at day 13, compared to control animals” value ([4]; biopsy 6 days after withdrawal)?
A: had significantly reduced the lipogenic rate at day 13

Q: And the “effect on lipogenesis at day 7, compared to control animals” value ([4]; biopsy after 7 days of administration)?
A: had not significantly affected lipogenesis at day 7

Q: And the “inhibition of glucose incorporation into liver” value [5]?
A: 32%

Q: What about the “inhibition of lipogenesis from glucose in the liver” value [6] of the same molecule?
A: 35%

Q: And the “inhibition of glucose incorporation into adipose tissue” value [7]?
A: 30%

Q: What about the “inhibition of lipogenesis from glucose in adipose tissue” value [8] of the same molecule?
A: 54%

Q: What about the “Percent Inhibition of lipogenesis” value [1] of the same molecule?
A: 75%

Q: And the “inhibition of glucose incorporation in adipose tissue” value [9]?
A: 50%

Q: How did the “Percent Inhibition of lipogenesis” value [1] turn out when `C=CCNC(=O)C1COc2cc(Cl)ccc2O1` (centres unmarked) [Compound 3A, 6-chloro-2,3-dihydro-N-(2-propenyl)-1,4-benzodioxin-2-carboxamide] was run?
A: 38%

Q: For `C=CCNC(=O)C1COc2ccc(C)cc2O1` (centres unmarked) [Compound 7], which “Percent Inhibition of lipogenesis” value [1] is on record?
A: 55%

Q: `C=CCNC(=O)C1COc2ccc(F)cc2O1` (centres unmarked) [Compound 8, 7-fluoro-2,3-dihydro-N-(2-propenyl)-1,4-benzodioxin-2-carboxamides] was tested. Which “Percent Inhibition of lipogenesis” value [1] did it give?
A: 72%
